Source: patent US10633419B2, “Immunomodulators” (BRISTOL-MYERS SQUIBB COMPANY, priority 2014, dated 2020)
Where two headings read alike, the source gives them in different places. Positions of bridges follow the written chain, without caps; N, C: chain ends. Non-standard residues stand in square brackets, D forms with d. Residues, ends and D or L forms follow the SMILES beside them. ξ: configuration not given here. *: point of attachment. X13 = O=C(O)CCCCCCCCCCCCCCC(=O)N[C@@H](CCC(=O)NCCCOCCOCCOCCCN*)C(=O)O; X11 = O=C(O)CCCCCCCCCCCCC(=O)N[C@@H](CCC(=O)NCCCOCCOCCOCCCN*)C(=O)O; Trp(1-CH2COOH) = N[C@@H](Cc1cn(CC(=O)O)c2ccccc12)C(=O)O; X14 = O=C(O)CCCCCCCCCCNC(=O)CCC(=O)NCCCOCCOCCOCCCN*; d(cisHyp) = O=C(O)[C@H]1C[C@@H](O)CN1; NH(CH2)12COOH = O=C(O)CCCCCCCCCCCCN*; PEG6 = NCCOCCOCCOCCOCCOCCOCCC(=O)O; cisHyp = O=C(O)[C@@H]1C[C@H](O)CN1; Palmitoyl = CCCCCCCCCCCCCCCC(=O)*; Hyp = O=C(O)[C@@H]1C[C@@H](O)CN1; NMeNle = CCCC[C@H](NC)C(=O)O; Dap(Me) = CNC[C@H](N)C(=O)O; Pip = O=C(O)[C@@H]1CCCCN1; NMeA = CN[C@@H](C)C(=O)O; Pra = C#CC[C@H](N)C(=O)O; Aun = NCCCCCCCCCCC(=O)O; Dab = NCC[C@H](N)C(=O)O; Dap = NC[C@H](N)C(=O)O; ξC = NC(CS)C(=O)O

Target: T1, PD-L1 (Homo sapiens, UniProt Q9NZQ7)
T1 construct: hPDL1(19-239)-TVMV-His; made in house; host or cells: HEK293T
Test: PD-1/PD-L1 Homogenous Time-Resolved Fluorescence (HTRF) binding assay (PD-1-Ig/PD-L1-His)
Summary of the method: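 HTRF competition in dPBS with 0.1% BSA and 0.05% Tween-20: 20 nM PD-1-Ig added after 15 min compound pre-incubation with 10 nM PD-L1-His, then another 15 min. Signal (665/620 nm) after 30 min with APC anti-His (20 nM) and Eu anti-Ig (1 nM).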

[1] = inhibition of PD-1-Ig binding to PD-L1-TVMV-His, value given as range class, read-out: HTRF IC50

T1 sequence (Q9NZQ7 with tags, fused parts or gaps): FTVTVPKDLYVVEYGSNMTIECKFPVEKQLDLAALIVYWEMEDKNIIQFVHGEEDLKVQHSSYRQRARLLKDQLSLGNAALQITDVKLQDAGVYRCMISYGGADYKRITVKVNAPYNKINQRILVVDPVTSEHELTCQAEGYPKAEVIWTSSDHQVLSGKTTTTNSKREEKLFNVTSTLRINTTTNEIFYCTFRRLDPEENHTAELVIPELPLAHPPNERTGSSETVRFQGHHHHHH

For `CCCC[C@H]1C(=O)N(C)[C@@H](CCCC)C(=O)N[C@@H](CC(C)C)C(=O)N[C@H](C(=O)NCC(=O)NCC(=O)NCC(=O)NCCCCCCCCCCC(=O)O)CSCC(=O)N[C@@H](Cc2ccc(O)cc2)C(=O)N(C)[C@@H](C)C(=O)N[C@@H](CC(N)=O)C(=O)N2CCC[C@H]2C(=O)N[C@@H](CN)C(=O)N[C@@H](CCC(N)=O)C(=O)N2C[C@H](O)C[C@H]2C(=O)N[C@@H](Cc2c[nH]c3ccccc23)C(=O)N[C@@H](CCN)C(=O)N[C@@H](Cc2cn(CC(=O)O)c3ccccc23)C(=O)N1C` [Example 11094] ({CH2CO}-Y[NMeA]NP[Dap]Q[Hyp]W[Dab][Trp(1-CH2COOH)][NMeNle][NMeNle]LCGGG[Aun]-OH; thioether N-14), the IC50 (inhibition of PD-1-Ig binding to PD-L1-TVMV-His, value given as number, read-out: HTRF IC50) was 18.8 nM.
`CCCC[C@H]1C(=O)N(C)[C@@H](CCCC)C(=O)N[C@@H](CC(C)C)C(=O)N[C@H](C(=O)NCCCCCCCCCCCCC(=O)O)CSCC(=O)N[C@@H](Cc2ccc(O)cc2)C(=O)N(C)[C@@H](C)C(=O)N[C@@H](CC(N)=O)C(=O)N2CCC[C@@H]2C(=O)N[C@@H](CN)C(=O)N[C@@H](CC(C)C)C(=O)N2C[C@@H](O)C[C@H]2C(=O)N[C@@H](Cc2c[nH]c3ccccc23)C(=O)N[C@@H](CCN)C(=O)N[C@@H](Cc2cn(CC(=O)O)c3ccccc23)C(=O)N1C` [Example 11204] ({CH2CO}-Y[NMeA]N[dP][Dap]L[cisHyp]W[Dab][Trp(1-CH2COOH)][NMeNle][NMeNle]LC-{NH(CH2)12COOH}; thioether N-14) showed an IC50 [1] of 10 to 99 nM.
`CCCC[C@H]1C(=O)N(C)[C@@H](CCCC)C(=O)N[C@@H](CC(C)C)C(=O)N[C@H](C(=O)NCC(=O)N[C@@H](CCC(=O)O)C(=O)NCCCOCCOCCOCCCNC(=O)CC[C@H](NC(=O)CCCCCCCCCCCCC(=O)O)C(=O)O)CSCC(=O)N[C@@H](Cc2ccc(O)cc2)C(=O)N(C)[C@@H](C)C(=O)N[C@@H](CC(N)=O)C(=O)N2CCC[C@H]2C(=O)N[C@@H](CN)C(=O)N[C@@H](CC(C)C)C(=O)N2C[C@H](O)C[C@H]2C(=O)N[C@@H](Cc2c[nH]c3ccccc23)C(=O)N[C@@H](CCN)C(=O)N[C@@H](Cc2cn(CC(=O)O)c3ccccc23)C(=O)N1C` [Example 11253] ({CH2CO}-Y[NMeA]NP[Dap]L[Hyp]W[Dab][Trp(1-CH2COOH)][NMeNle][NMeNle]LCGE-X11; thioether N-14) gave an IC50 [1] of 0.3 to 9.9 nM.
`CCCC[C@H]1C(=O)N(C)[C@@H](CCCC)C(=O)N[C@@H](CC(C)C)C(=O)N[C@H](C(=O)NCC(=O)N[C@H](CC(=O)O)C(=O)NCC(=O)NCCCCCCCCCCC(=O)O)CSCC(=O)N[C@@H](Cc2ccc(O)cc2)C(=O)N(C)[C@@H](C)C(=O)N[C@@H](CC(N)=O)C(=O)N2CCC[C@H]2C(=O)N[C@@H](CN)C(=O)N[C@@H](CC(C)C)C(=O)N2C[C@H](O)C[C@H]2C(=O)N[C@@H](Cc2c[nH]c3ccccc23)C(=O)N[C@@H](CCN)C(=O)N[C@@H](Cc2cn(CC(=O)O)c3ccccc23)C(=O)N1C` [Example 11100] ({CH2CO}-Y[NMeA]NP[Dap]L[Hyp]W[Dab][Trp(1-CH2COOH)][NMeNle][NMeNle]LCG[dD]G[Aun]-OH; thioether N-14) was tested, and the IC50 [1] was 10 to 99 nM.
In the case of `CCCC[C@H]1C(=O)N(C)[C@@H](CCCC)C(=O)N[C@@H](CC(C)C)C(=O)N[C@H](C(=O)NCC(=O)N[C@@H](CC(=O)O)C(=O)N[C@@H](CC(=O)O)C(=O)NCCCCCCCCCCCCC(=O)O)CSCC(=O)N[C@@H](Cc2ccc(O)cc2)C(=O)N(C)[C@@H](C)C(=O)N[C@@H](CC(N)=O)C(=O)N2CCC[C@H]2C(=O)N[C@@H](CN)C(=O)N[C@@H](CC(C)C)C(=O)N2C[C@H](O)C[C@H]2C(=O)N[C@@H](Cc2c[nH]c3ccccc23)C(=O)N[C@@H](CCN)C(=O)N[C@@H](Cc2cn(CC(=O)O)c3ccccc23)C(=O)N1C` [Example 11217] ({CH2CO}-Y[NMeA]NP[Dap]L[Hyp]W[Dab][Trp(1-CH2COOH)][NMeNle][NMeNle]LCGDD-{NH(CH2)12COOH}; thioether N-14), the IC50 [1] is reported as 10 to 99 nM.
Work on `C#CC[C@H](NC(=O)CNC(=O)[C@@H]1CSCC(=O)N[C@@H](Cc2ccc(O)cc2)C(=O)N(C)[C@@H](C)C(=O)N[C@@H](CC(N)=O)C(=O)N2CCC[C@H]2C(=O)N[C@@H](CN)C(=O)N[C@@H](CC(C)C)C(=O)N2C[C@H](O)C[C@H]2C(=O)N[C@@H](Cc2c[nH]c3ccccc23)C(=O)N[C@@H](CCN)C(=O)N[C@@H](Cc2cn(CC(=O)O)c3ccccc23)C(=O)N(C)[C@@H](CCCC)C(=O)N(C)[C@@H](CCCC)C(=O)N[C@@H](CC(C)C)C(=O)N1)C(N)=O` [INT 1300W] ({CH2CO}-Y[NMeA]NP[Dap]L[Hyp]W[Dab][Trp(1-CH2COOH)][NMeNle][NMeNle]LCG[Pra]-NH2; thioether N-14) yielded an IC50 [1] of 10 to 99 nM.
With `CCCC[C@H]1C(=O)N(C)[C@@H](CCCC)C(=O)N[C@@H](CC(C)C)C(=O)N[C@H](C(=O)NCC(=O)N[C@@H](Cc2cn(CC[C@H](NC(=O)CCCCCCCCCCCCCCCCC(=O)O)C(=O)O)nn2)C(=O)O)CSCC(=O)N[C@@H](Cc2ccc(O)cc2)C(=O)N2CCCC[C@H]2C(=O)N[C@@H](CC(N)=O)C(=O)N2CCC[C@H]2C(=O)N[C@@H](CNC)C(=O)N[C@@H](CC(C)C)C(=O)N2C[C@H](O)C[C@H]2C(=O)N[C@@H](Cc2c[nH]c3ccccc23)C(=O)N[C@@H](CCN)C(=O)N[C@@H](Cc2cn(CC(=O)O)c3ccccc23)C(=O)N1C` [Example 13133] the IC50 [1] was 0.3 to 9.9 nM.
`CCCC[C@H]1C(=O)N(C)[C@@H](CCCC)C(=O)N[C@@H](CC(C)C)C(=O)N[C@H](C(=O)NCCCOCCOCCOCCCNC(=O)CC[C@H](NC(=O)CCCCCCCCCCCCCCC(=O)O)C(=O)O)CSCC(=O)N[C@@H](Cc2ccc(O)cc2)C(=O)N(C)[C@@H](C)C(=O)N[C@@H](CC(N)=O)C(=O)N2CCC[C@H]2C(=O)N[C@@H](CN)C(=O)N[C@@H](CC(C)C)C(=O)N2C[C@H](O)C[C@@H]2C(=O)N[C@@H](Cc2c[nH]c3ccccc23)C(=O)N[C@@H](CCN)C(=O)N[C@@H](Cc2cn(CC(=O)O)c3ccccc23)C(=O)N1C` [Example 11161] ({CH2CO}-Y[NMeA]NP[Dap]L[d(cisHyp)]W[Dab][Trp(1-CH2COOH)][NMeNle][NMeNle]LC-X13; thioether N-14) gave an IC50 [1] of 100 to 1600 nM.
Compound `C#CC[C@H](NC(=O)CNC(=O)[C@@H]1CSCC(=O)N[C@@H](Cc2ccc(O)cc2)C(=O)N2CCCC[C@H]2C(=O)N[C@@H](CC(N)=O)C(=O)N2CCC[C@H]2C(=O)N[C@@H](CNC)C(=O)N[C@@H](CC(C)C)C(=O)N2C[C@H](O)C[C@H]2C(=O)N[C@@H](Cc2c[nH]c3ccccc23)C(=O)N[C@@H](CCN)C(=O)N[C@@H](Cc2cn(CC(=O)O)c3ccccc23)C(=O)N(C)[C@@H](CCCC)C(=O)N(C)[C@@H](CCCC)C(=O)N[C@@H](CC(C)C)C(=O)N1)C(=O)O` [INT130AK] ({CH2CO}-Y[Pip]NP[Dap(Me)]L[Hyp]W[Dab][Trp(1-CH2COOH)][NMeNle][NMeNle]LCG[Pra]-OH; thioether N-14) has an IC50 [1] of 0.3 to 9.9 nM.
Work on `CCCC[C@H]1C(=O)N(C)[C@@H](CCCC)C(=O)N[C@@H](CC(C)C)C(=O)N[C@H](C(=O)NCCCOCCOCCOCCCNC(=O)CCC(=O)NCCCCCCCCCCC(=O)O)CSCC(=O)N[C@@H](Cc2ccc(O)cc2)C(=O)N(C)[C@@H](C)C(=O)N[C@@H](CC(N)=O)C(=O)N2CCC[C@H]2C(=O)N[C@@H](CN)C(=O)N[C@@H](CC(C)C)C(=O)N2C[C@H](O)C[C@@H]2C(=O)N[C@@H](Cc2c[nH]c3ccccc23)C(=O)N[C@@H](CCN)C(=O)N[C@@H](Cc2cn(CC(=O)O)c3ccccc23)C(=O)N1C` [Example 11138] ({CH2CO}-Y[NMeA]NP[Dap]L[d(cisHyp)]W[Dab][Trp(1-CH2COOH)][NMeNle][NMeNle]LC-X14; thioether N-14) yielded an IC50 [1] of 10 to 99 nM.
With `CCCC[C@H]1C(=O)N(C)[C@@H](CCCC)C(=O)N[C@@H](CCCNC(=N)N)C(=O)N[C@H](C(=O)NCC(=O)N[C@@H](Cc2cn(CCCCCNC(=O)CCC(=O)Oc3c(C)c(C)c4c(c3C)CC[C@@](C)(CCC[C@H](C)CCC[C@H](C)CCCC(C)C)O4)nn2)C(N)=O)CSCC(=O)N[C@@H](Cc2ccc(O)cc2)C(=O)N(C)[C@@H](C)C(=O)N[C@@H](CC(N)=O)C(=O)N2CCC[C@H]2C(=O)N[C@@H](CN)C(=O)N[C@@H](CC(C)C)C(=O)N2C[C@H](O)C[C@H]2C(=O)N[C@@H](Cc2c[nH]c3ccccc23)C(=O)N[C@@H](CO)C(=O)N[C@@H](Cc2csc3ccccc23)C(=O)N1C` [Example 14058] the IC50 was 100 to 1600 nM.
`CCCCCCCCCCCCCCCC(=O)NCCCC[C@H](NC(=O)CCOCCOCCOCCOCCOCCOCCNC(=O)CNC(=O)C1CSCC(=O)N[C@@H](Cc2ccc(O)cc2)C(=O)N(C)[C@@H](C)C(=O)N[C@@H](CC(=O)O)C(=O)N2CCC[C@H]2C(=O)N[C@@H](Cc2cnc[nH]2)C(=O)N[C@@H](CC(C)C)C(=O)N2C[C@H](O)C[C@H]2C(=O)N[C@@H](Cc2c[nH]c3ccccc23)C(=O)N[C@@H](CO)C(=O)N[C@@H](Cc2c[nH]c3ccccc23)C(=O)N(C)[C@@H](CCCC)C(=O)N(C)[C@@H](CCCC)C(=O)N[C@@H](CCCNC(=N)N)C(=O)N1)C(N)=O` (stereo partly shown) [Example 11029] ({CH2CO}-Y[NMeA]DPHL[Hyp]WSW[NMeNle][NMeNle]R[ξC]G[PEG6]K(Palmitoyl)-NH2; thioether N-14) was tested, and the IC50 [1] was 100 to 1600 nM.
In the case of `C#CC[C@H](NC(=O)CNC(=O)[C@@H]1CSCC(=O)N[C@@H](Cc2ccc(O)cc2)C(=O)N(C)[C@@H](C)C(=O)N[C@@H](CC(N)=O)C(=O)N2CCC[C@H]2C(=O)N[C@@H](CN)C(=O)N[C@@H](CC(C)C)C(=O)N2C[C@H](O)C[C@H]2C(=O)N[C@@H](Cc2c[nH]c3ccccc23)C(=O)N[C@@H](CO)C(=O)N[C@@H](Cc2cn(CC(=O)O)c3ccccc23)C(=O)N(C)[C@@H](CCCC)C(=O)N(C)[C@@H](CCCC)C(=O)N[C@@H](CC(C)C)C(=O)N1)C(N)=O` [INT 1300X] ({CH2CO}-Y[NMeA]NP[Dap]L[Hyp]WS[Trp(1-CH2COOH)][NMeNle][NMeNle]LCG[Pra]-NH2; thioether N-14), the IC50 [1] is reported as 10 to 99 nM.
